Assay results published in patent US20020183518A1, “Modulators of proteins with phosphotyrosine recognition units” (ONTOGEN CORPORATION, priority 1995, published 2002).

Key:
Type in all cases: biochemical
PTPα = PTPα (Homo sapiens, UniProt P18433); assay: In vitro PTPase inhibition assay (pNPP, colorimetric), PTPα; details: Table 8; 100 μM compound
Description: (§1) The ability of the compounds of the present invention, such as the cinnamic 4 acid derivative compounds of Example 2, to inhibit the PTPase activity of PTP-1B, CD45, PTP-1C, and PTPα was determined using modifications of the PTP-1B and CD45 activity assays described in Examples 3 and 4.
(§2) First, 0.001 mmol of the cinnamic acid derivative (or other PTPase inhibitor compound) was dissolved in 100 ul of DMSO to create a 10 mM stock solution. The 10 mM stock solution was used to add varying concentrations (100 uM, 133 uM, 10 uM, 3 uM, 1 uM, 0.3 uM, 0.1 uM, 0.03 uM, 0.01 uM or 0.003 uM) of the inhibitor compound to a series of otherwise identical PTPase activity assay reactions (100 ul final volume in microtiter wells). Thus, each 100 ul reaction contained 10 ul PTPase enzyme stock solution (final phosphatase concentration of approximately 20 ng/well), 70 ul activity assay buffer, 10 ul pNPP stock solution (final pNPP concentration of 0.9 mM for PTP-1B assay, 0.93 mM for CD45 assay, 0.5 mM for PTPα assay, and 8 mM for PTP-1C assay), and 10 ul of the diluted inhibitor compound in DMSO. Assay buffers contained: for CD45 and PTP-1B assays, 100 mM sodium acetate at pH 6.0, 1 mM EDTA, 0.1% Triton X-100, and 15 mM bME; for PTP-1C assays, 100 mM sodium acetate at pH 5.5, 0.1% BSA, and 15 mM bME; for PTPα assays, 100 mM sodium acetate at pH 5.25, 0.1% BSA, and 15 mM bME. Purified phosphatase was added to the reaction mixtures to begin the reactions; the reactions were incubated at 37° C. for 60 min. (for PTP-1B and CD45 assays) or at 27° C. for 60 min. (for PTP-1C and PTPα assays), stopped, and colorimetrically analyzed as described above. As positive and negative controls, reactions were performed containing 10 ul DMSO with no inhibitor compound or containing the known PTPase inhibitors vanadate (final concentration 0.5 mM; for PTP-1B and CD45 assays) or ammonium molybdate (final concentration 1 mM; for PTP-1C and PTPα assays) substituted for the inhibitor compound of the invention.
(§3) The concentration of inhibitor compound required to inhibit 50% of the PTPase activity (IC50) was determined as follows. First, absorbance readings from the negative control reactions were treated as a baseline and subtracted from the absorbance readings of the experimental reactions. Then, for each reaction, a percent inhibition was calculated using the following formula: […]
(§4) The ability of the compounds of the present invention, such as the cinnamic acid derivative compounds of Example 2, to inhibit the PTPase activity of PTP-1B, CD45, PTP-1C, and PTPα was determined using modifications of the PTP-1B and CD45 activity assays described in Examples 3 and 4.
as §2, with “uM, 33” for “uM, 133”, “EDTA, 0. 1%” for “EDTA, 0.1%”, “at 27 C” for “at 27° C.”, “min.” for “min. (for PTP-1C and PTPα assays), stopped, and colorimetrically analyzed as described above. As positive and negative controls, reactions were performed containing 10 ul DMSO with no inhibitor compound or containing the known PTPase inhibitors vanadate (final concentration 0.5 mM; for PTP-1B and CD45 assays) or ammonium molybdate (final concentration 1 mM; for PTP-1C and PTPα assays) substituted for the inhibitor compound of the invention.”

PTP-1C = PTP-1C (Homo sapiens, UniProt P29350); assay: In vitro PTPase inhibition assay (pNPP, colorimetric), PTP-1C; details: Table 8; 100 μM compound
PTP-1C, sequence (P29350 whole entry, species assumed): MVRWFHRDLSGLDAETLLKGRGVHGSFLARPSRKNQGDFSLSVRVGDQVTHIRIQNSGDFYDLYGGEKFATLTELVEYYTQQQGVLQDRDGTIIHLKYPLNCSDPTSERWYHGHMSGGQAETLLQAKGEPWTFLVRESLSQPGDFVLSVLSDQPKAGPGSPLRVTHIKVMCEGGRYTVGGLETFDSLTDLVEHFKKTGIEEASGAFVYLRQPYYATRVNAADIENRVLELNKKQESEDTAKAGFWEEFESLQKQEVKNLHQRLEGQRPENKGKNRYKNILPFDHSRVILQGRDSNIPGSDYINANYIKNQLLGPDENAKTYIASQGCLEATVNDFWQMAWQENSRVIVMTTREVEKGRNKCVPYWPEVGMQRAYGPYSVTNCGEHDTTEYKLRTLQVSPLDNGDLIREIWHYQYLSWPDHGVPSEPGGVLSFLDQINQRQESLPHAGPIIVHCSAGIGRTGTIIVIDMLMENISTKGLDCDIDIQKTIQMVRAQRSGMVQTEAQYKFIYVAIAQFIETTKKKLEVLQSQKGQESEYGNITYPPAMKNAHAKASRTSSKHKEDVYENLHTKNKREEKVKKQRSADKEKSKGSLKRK
Description: as §1, §2, §3, §4
as §2, with “uM, 33” for “uM, 133”, “EDTA, 0. 1%” for “EDTA, 0.1%”, “at 27 C” for “at 27° C.”, “min.” for “min. (for PTP-1C and PTPα assays), stopped, and colorimetrically analyzed as described above. As positive and negative controls, reactions were performed containing 10 ul DMSO with no inhibitor compound or containing the known PTPase inhibitors vanadate (final concentration 0.5 mM; for PTP-1B and CD45 assays) or ammonium molybdate (final concentration 1 mM; for PTP-1C and PTPα assays) substituted for the inhibitor compound of the invention.”

PTP-1B = target: T1, PTP-1B (Homo sapiens, UniProt P18031); assay: In vitro PTPase inhibition assay (pNPP, colorimetric), PTP-1B; details: Table 8; 1 μM compound
T1 construct: known to encode a 321 amino acid fragment containing the PTP-1B catalytic domain and having PTPase activity; made in house; host or cells: E. coli DH5α, plasmid pGEX-3X-PTP-1B
T1 sequence (P18031 3-277 limits assumed): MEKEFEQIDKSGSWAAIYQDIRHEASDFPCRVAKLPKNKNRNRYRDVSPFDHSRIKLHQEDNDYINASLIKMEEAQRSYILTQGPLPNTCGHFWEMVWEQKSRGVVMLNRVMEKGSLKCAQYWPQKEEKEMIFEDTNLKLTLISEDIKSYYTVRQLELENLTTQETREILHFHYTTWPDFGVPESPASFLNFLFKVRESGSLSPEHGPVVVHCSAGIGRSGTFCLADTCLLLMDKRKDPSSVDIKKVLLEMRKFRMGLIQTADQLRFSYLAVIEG
Description: PTP-1B enzymatic activity of samples was assayed in microtiter plates as follows. The protein concentration of the PTP-1B enzyme preparation was determined using the Bio-Rad Protein Assay kit (Bio-Rad, Hercules Calif.). […] Reactions were mixed gently and incubated at 37° C. for 60 minutes. Enzymatic cleavage of phosphate from pNPP (a tyrosine phosphate analog) is marked by a colorimetric change in this substrate. See, e.g., Imbert et al., Biochem J., 297:163-173 (1994); Ghosh and Miller, Biochem. Biophys. Res. […] Zanke et al., Eur. J. […] To determine the enzymatic activity, absorbance readings of the reactions were measured at 405 nm using a Molecular Devices Thermomax Plate Reader (Menlo Park Calif.). […] Purified phosphatase was added to the reaction mixtures to begin the reactions; the reactions were incubated at 37° C. for 60 min. […] (for PTP-1C and PTPα assays), stopped, and colorimetrically analyzed as described above. […] First, absorbance readings from the negative control reactions were treated as a baseline and subtracted from the absorbance readings of the experimental reactions. Then, for each reaction, a percent inhibition was calculated using the following formula: […] For each inhibitor compound tested, an IC50 concentration was calculated from a best-fit computer analysis of the calculated percent inhibition for the various dilutions of the compound. PTP-1B enzymatic activity of samples was assayed in microtiter plates as follows. The protein concentration of the PTP-1B enzyme preparation was determined using the Bio-Rad Protein Assay kit (Bio-Rad, Hercules Calif.). […] Reactions were mixed gently and incubated at 37° C. for 60 minutes. Enzymatic cleavage of phosphate from pNPP (a tyrosine phosphate analog) is marked by a colorimetric change in this substrate. See, e.g., Imbert et al., Biochem J., 297:163-173 (1994); Ghosh and Miller, Biochem. Biophys. Res. […] Zanke et al., Eur. […] To determine the enzymatic activity, absorbance readings of the reactions were measured at 405 nm using a Molecular Devices Thermomax Plate Reader (Menlo Park Calif.). […] Purified phosphatase was added to the reaction mixtures to begin the reactions; the reactions were incubated at 37° C. for 60 min. […] (for PTP-1C and PTPα assays), stopped, and calorimetrically analyzed as described above. […] First, absorbance readings from the negative control reactions were treated as a baseline and subtracted from the absorbance readings of the experimental reactions. Then, for each reaction, a percent inhibition was calculated using the following formula: […] For each inhibitor compound tested, an IC50 concentration was calculated from a best-fit computer analysis of the calculated percent inhibition for the various dilutions of the compound.

PTPα, sequence (P18433 20-802): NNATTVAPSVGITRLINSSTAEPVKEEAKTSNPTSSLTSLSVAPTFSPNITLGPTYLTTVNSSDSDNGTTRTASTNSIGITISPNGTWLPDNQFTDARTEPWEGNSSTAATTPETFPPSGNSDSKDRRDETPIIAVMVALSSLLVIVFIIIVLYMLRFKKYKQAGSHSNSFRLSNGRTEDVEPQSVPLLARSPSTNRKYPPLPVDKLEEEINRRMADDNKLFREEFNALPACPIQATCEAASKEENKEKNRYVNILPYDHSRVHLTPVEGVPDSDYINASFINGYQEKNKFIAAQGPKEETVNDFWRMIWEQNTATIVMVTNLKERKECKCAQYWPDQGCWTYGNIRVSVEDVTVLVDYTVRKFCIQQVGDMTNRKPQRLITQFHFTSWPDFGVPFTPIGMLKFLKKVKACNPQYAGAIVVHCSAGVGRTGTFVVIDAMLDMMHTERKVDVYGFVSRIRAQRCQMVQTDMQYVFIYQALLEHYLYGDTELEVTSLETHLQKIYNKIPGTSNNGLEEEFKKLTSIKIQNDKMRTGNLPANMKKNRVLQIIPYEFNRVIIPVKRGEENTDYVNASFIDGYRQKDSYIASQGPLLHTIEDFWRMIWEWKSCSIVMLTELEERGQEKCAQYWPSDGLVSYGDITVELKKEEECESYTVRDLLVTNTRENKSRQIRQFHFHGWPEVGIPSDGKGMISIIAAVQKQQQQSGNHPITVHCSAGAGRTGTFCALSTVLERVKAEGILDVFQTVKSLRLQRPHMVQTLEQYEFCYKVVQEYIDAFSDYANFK

Row | Structure (SMILES) | % inhibition of PTPα at 100 μM (PTPα) [%] | % inhibition of PTP1C at 100 μM (PTP-1C) [%] | % inhibition of PTP1B at 1 μM (PTP-1B) [%]
1 | O=C(O)/C=C/c1ccc(C(OC(=O)/C=C/c2ccc(F)cc2)C(=O)NCCCCCC(=O)O)cc1 (racemic) [Compound 46] | 73 | 61 | 75
2 | CCCC(CCC)C(=O)OC(C(=O)NCCC(=O)O)c1ccc(/C=C/C(=O)O)cc1 (racemic) [Compound 47] | 48 | 63 | 68
3 | CCCCCCC(OC(=O)c1ccc(/C=C/C(=O)O)cc1)C(=O)NCCC(=O)O (racemic) [Compound 38] | 71 | 63 | 93
4 | CCCC(CCC)C(=O)OC(C(=O)NCCCCCC(=O)O)c1ccc(/C=C/C(=O)O)cc1 (racemic) [Compound 48] | 3 | 33 | 69
5 | O=C(O)/C=C/c1ccc(C(OC(=O)CCC2CCCC2)C(=O)NCCC(=O)O)cc1 (racemic) [Compound 49] | 0 | 35 | 37
6 | COc1ccc(C(=O)OC(C(=O)NCCC(=O)O)c2ccc(/C=C/C(=O)O)cc2)cc1 (racemic) [Compound 42] | 92 | 88 | 84
7 | COc1ccc(C(=O)OC(C(=O)NCCCCCC(=O)O)c2ccc(/C=C/C(=O)O)cc2)cc1 (racemic) [Compound 43] | 82 | 79 | 76
8 | O=C(O)/C=C/c1ccc(C(OC(=O)CCC2CCCC2)C(=O)NCCCCCC(=O)O)cc1 (racemic) [Compound 50] | 37 | 25 | 50
9 | O=C(O)/C=C/c1ccc(C(OC(=O)c2ccc([N+](=O)[O-])cc2)C(=O)NCCC(=O)O)cc1 (racemic) [Compound 44] | 87 | 86 | 79
10 | O=C(O)/C=C/c1ccc(C(=O)OC(C(=O)NCCCCCC(=O)O)c2ccc(Br)cc2)cc1 (racemic) [Compound 37] | 63 | 59 | 85
11 | CCCCCCCCCC(OC(=O)c1ccc(/C=C/C(=O)O)cc1)C(=O)NCCCCCC(=O)O (racemic) [Compound 41] | 20 | 17 | 39
12 | CCCCCCC(OC(=O)c1ccc(/C=C/C(=O)O)cc1)C(=O)NCCCCCC(=O)O (racemic) [Compound 39] | 47 | 53 | 82
13 | CCCCCCCCCC(OC(=O)c1ccc(/C=C/C(=O)O)cc1)C(=O)NCCC(=O)O (racemic) [Compound 40] | 82 | 62 | 88
14 | O=C(O)/C=C/c1ccc(C(=O)OC(C(=O)NCCC(=O)O)c2ccc(Br)cc2)cc1 (racemic) [Compound 36] | 0 | 42 | 52
15 | O=C(O)/C=C/c1ccc(C(OC(=O)/C=C/c2ccc(F)cc2)C(=O)NCCC(=O)O)cc1 (racemic) [Compound 45] | 85 | 84 | 85
